Results: ChEMBL document CHEMBL4387786, “Mallopenins A-E, Antibacterial Phenolic Derivatives from the Fruits of Mallotus philippensis” (2019)
Values after ≈ are worked out from the molar mass of the structure shown.

How the values were obtained:
Micrococcus luteus = test: Antibacterial activity against Micrococcus luteus by CLSI guideline based broth microdilution method; format: functional
Bacillus cereus = test: Antibacterial activity against Bacillus cereus by CLSI guideline based broth microdilution method; format: functional
Escherichia coli = test: Antibacterial activity against Escherichia coli by CLSI guideline based broth microdilution method; format: functional
[1] = tested on: Staphylococcus epidermidis; test: Antibacterial activity against Staphylococcus epidermidis by CLSI guideline based broth microdilution method; format: functional
Salmonella typhimurium = test: Antibacterial activity against Salmonella typhimurium by CLSI guideline based broth microdilution method; format: functional, Salmonella enterica subsp. enterica serovar Typhimurium
Staphylococcus aureus = test: Antibacterial activity against Staphylococcus aureus by CLSI guideline based broth microdilution method; format: functional
Shigella flexneri = test: Antibacterial activity against Shigella flexneri by CLSI guideline based broth microdilution method; format: functional
Pseudomonas aeruginosa = test: Antibacterial activity against Pseudomonas aeruginosa by CLSI guideline based broth microdilution method; format: functional
Streptococcus mutans = test: Antibacterial activity against Streptococcus mutans by CLSI guideline based broth microdilution method; format: functional

CC(C)=CCc1c(O)c(C(=O)/C=C/c2ccccc2)c2c(c1O)[C@H]1[C@@H]3[C@@H](CC[C@]3(C)O2)C1(C)C
MIC (Micrococcus luteus): > 100 µM | MIC (Bacillus cereus): > 100 µM | MIC (Escherichia coli): > 100 µM | MIC [1]: > 100 µM | MIC (Salmonella typhimurium; Salmonella enterica): > 100 µM | MIC (Staphylococcus aureus): > 100 µM | MIC (Shigella flexneri): > 100 µM | MIC (Pseudomonas aeruginosa): > 100 µM | MIC (Streptococcus mutans): > 100 µM

CC1(C)C=Cc2c(O)c3c(c(CC(=O)O)c2O1)O[C@H](c1ccccc1)CC3=O
MIC (Micrococcus luteus): > 100 µM | MIC (Bacillus cereus): > 100 µM | MIC (Escherichia coli): > 100 µM | MIC [1]: > 100 µM | MIC (Salmonella typhimurium; Salmonella enterica): > 100 µM | MIC (Staphylococcus aureus): > 100 µM | MIC (Shigella flexneri): > 100 µM | MIC (Pseudomonas aeruginosa): > 100 µM | MIC (Streptococcus mutans): > 100 µM

CN[C@H](CC(C)C)C(=O)N[C@H]1C(=O)N[C@@H](CC(N)=O)C(=O)N[C@H]2C(=O)N[C@H]3C(=O)N[C@H](C(=O)N[C@H](C(=O)O)c4cc(O)cc(O)c4-c4cc3ccc4O)[C@H](O)c3ccc(c(Cl)c3)Oc3cc2cc(c3O[C@@H]2O[C@H](CO)[C@@H](O)[C@H](O)[C@H]2O[C@H]2C[C@](C)(N)[C@H](O)[C@H](C)O2)Oc2ccc(cc2Cl)[C@H]1O [VANCOMYCIN]
MIC (Micrococcus luteus): 0.2 µM (≈ 0.29 µg/mL) | MIC (Bacillus cereus): 0.1 µM (≈ 0.145 µg/mL) | MIC [1]: 0.2 µM (≈ 0.29 µg/mL) | MIC (Staphylococcus aureus): 0.2 µM (≈ 0.29 µg/mL) | MIC (Streptococcus mutans): 0.2 µM (≈ 0.29 µg/mL)

CC(=O)c1c(O)c(C)c(O)c(Cc2c3c(c(O)c4c2OC(c2ccc(O)cc2)CC4=O)C=CC(C)(C)O3)c1O (centres undefined)
MIC (Micrococcus luteus): > 100 µM | MIC (Bacillus cereus): 30.1 µM (≈ 16 µg/mL) | MIC (Escherichia coli): > 100 µM | MIC [1]: > 100 µM | MIC (Salmonella typhimurium; Salmonella enterica): > 100 µM | MIC (Staphylococcus aureus): > 100 µM | MIC (Shigella flexneri): > 100 µM | MIC (Pseudomonas aeruginosa): > 100 µM | MIC (Streptococcus mutans): > 100 µM

GENTAMICIN
MIC (Escherichia coli): 0.5 µM | MIC (Salmonella typhimurium; Salmonella enterica subsp. enterica serovar Typhimurium): 1 µM | MIC (Shigella flexneri): 1 µM | MIC (Pseudomonas aeruginosa): 1 µM

CC(C)=CCC/C(C)=C/Cc1c(O)c2c(c(C(=O)/C=C/c3ccccc3)c1O)OC(C)(C)C=C2
MIC (Micrococcus luteus): > 100 µM | MIC (Bacillus cereus): > 100 µM | MIC (Escherichia coli): > 100 µM | MIC [1]: > 100 µM | MIC (Salmonella typhimurium; Salmonella enterica): > 100 µM | MIC (Staphylococcus aureus): > 100 µM | MIC (Shigella flexneri): > 100 µM | MIC (Pseudomonas aeruginosa): > 100 µM | MIC (Streptococcus mutans): > 100 µM

COCc1c2c(c(O)c3c1O[C@H](c1ccccc1)CC3=O)C=CC(C)(C)O2
MIC (Micrococcus luteus): > 100 µM | MIC (Bacillus cereus): > 100 µM | MIC (Escherichia coli): > 100 µM | MIC [1]: > 100 µM | MIC (Salmonella typhimurium; Salmonella enterica): > 100 µM | MIC (Staphylococcus aureus): > 100 µM | MIC (Shigella flexneri): > 100 µM | MIC (Pseudomonas aeruginosa): > 100 µM | MIC (Streptococcus mutans): > 100 µM

CC(=O)c1c(O)c(CC=C(C)C)c2c3c1OC1(C)CCC(C3C1)C(C)(C)O2 (racemic)
MIC (Micrococcus luteus): > 100 µM | MIC (Bacillus cereus): > 100 µM | MIC (Escherichia coli): > 100 µM | MIC [1]: > 100 µM | MIC (Salmonella typhimurium; Salmonella enterica): > 100 µM | MIC (Staphylococcus aureus): > 100 µM | MIC (Shigella flexneri): > 100 µM | MIC (Pseudomonas aeruginosa): > 100 µM | MIC (Streptococcus mutans): > 100 µM

CC(=O)c1c(O)c(C)c(O)c(Cc2c(O)c(CC=C(C)C)c(O)c3c2OC(c2ccccc2)CC3=O)c1O (centres undefined)
MIC (Micrococcus luteus): 30.9 µM (≈ 16 µg/mL) | MIC (Bacillus cereus): 30.9 µM (≈ 16 µg/mL) | MIC (Escherichia coli): 30.9 µM (≈ 16 µg/mL) | MIC [1]: > 100 µM | MIC (Salmonella typhimurium; Salmonella enterica): > 100 µM | MIC (Staphylococcus aureus): 61.8 µM (≈ 32 µg/mL) | MIC (Shigella flexneri): > 100 µM | MIC (Pseudomonas aeruginosa): > 100 µM | MIC (Streptococcus mutans): 30.9 µM (≈ 16 µg/mL)

CC(=O)c1c(O)c(C)c(O)c(Cc2c(O)c3c(c(C(=O)/C=C/c4ccc(O)cc4)c2O)OC(C)(C)C=C3)c1O
MIC (Micrococcus luteus): 30.1 µM (≈ 16 µg/mL) | MIC (Bacillus cereus): 3.8 µM (≈ 2.02 µg/mL) | MIC (Escherichia coli): 7.5 µM (≈ 3.99 µg/mL) | MIC [1]: > 100 µM | MIC (Salmonella typhimurium; Salmonella enterica): > 100 µM | MIC (Staphylococcus aureus): 15 µM (≈ 7.99 µg/mL) | MIC (Shigella flexneri): > 100 µM | MIC (Pseudomonas aeruginosa): > 100 µM | MIC (Streptococcus mutans): 3.8 µM (≈ 2.02 µg/mL)

CC(=O)c1c(O)c(C)c(O)c(Cc2c(O)c3c(c(C(=O)/C=C/c4ccccc4)c2O)OC(C)(C)C=C3)c1O [ROTTLERIN]
MIC (Micrococcus luteus): 15.5 µM (≈ 8.01 µg/mL) | MIC (Bacillus cereus): 15.5 µM (≈ 8.01 µg/mL) | MIC (Escherichia coli): 15.5 µM (≈ 8.01 µg/mL) | MIC [1]: > 100 µM | MIC (Salmonella typhimurium; Salmonella enterica): > 100 µM | MIC (Staphylococcus aureus): 15.5 µM (≈ 8.01 µg/mL) | MIC (Shigella flexneri): > 100 µM | MIC (Pseudomonas aeruginosa): > 100 µM | MIC (Streptococcus mutans): 15.5 µM (≈ 8.01 µg/mL)

CC(=O)c1c(O)c(C)c(O)c(Cc2c3c(c(O)c4c2OC(c2ccccc2)CC4=O)C=CC(C)(C)O3)c1O (centres undefined)
MIC (Micrococcus luteus): > 100 µM | MIC (Bacillus cereus): > 100 µM | MIC (Escherichia coli): > 100 µM | MIC [1]: > 100 µM | MIC (Salmonella typhimurium; Salmonella enterica): > 100 µM | MIC (Staphylococcus aureus): > 100 µM | MIC (Shigella flexneri): > 100 µM | MIC (Pseudomonas aeruginosa): > 100 µM | MIC (Streptococcus mutans): > 100 µM
